Test results published in paper PMC11477965, “Synthesis and Anti-Liver Fibrosis Research of Aspartic Acid Derivatives” (Molecules, 2024).
Where a SMILES comes first, the peptide text is derived from it.

Key:
[1] = test system: COL1A1 promoter; experiment: COL1A1 promoter luciferase reporter inhibition assay in LX-2 cells; type: cell-based, human; conditions: for inhibition at 500 µM: Homo sapiens, read-out: Inhibitory Rate (%) of COL1A1 promotor; for relative fluorescence unit (RFU) of COL1A1 promotor: mean ± SD, n = 3, Control 124874.7 ± 10750.9;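 on all read-outs here: Anti-fibrotic screen: luciferase reporter driven by the COL1A1 promoter in human hepatic stellate LX-2 cells, compounds applied in complete medium in 96-well plates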
Procedure: A total of 32 target compounds, the lead compound L-Asp, and the positive control epigallocatechin gallate (EGCG), known for its anti-hepatic fibrotic activity [29], were tested for inhibitory effects on COL1A1 promoter activity at a concentration of 0.5 mM.
The LX-2 cells at 90% confluent were transfected with the plasmid of pGL4.17-COL1A1 promoter using Lipofectamine 2000 (Invitrogen, 11668019, Carlsbad, CA, USA) with Opti-MEM serum-free medium (Gibco, 1930104). After culturing for 6 h, the cells were replaced with a complete medium and seeded in 96-well plates for 24 h. The compound to be tested was prepared using a complete medium and added to the 96-well plate. After 24 h, Bright-Glo Luciferase Assay System (Promega, Madison, WI, USA) was used to detect the activity of COL1A1 promoter and the assaying inhibition rate.

[2] = test system: IKKβ-NF-κB signaling pathway; experiment: LPS-induced inflammation in LX-2 cells (western blot); type: cell-based, human; conditions: LPS 1 μg/mL, 24 h, 500 μM bands scanned
Procedure: Inflammation is crucial in the onset and progression of liver fibrosis, and fibrosis can further exacerbate tissue inflammation. […] To assess the anti-inflammatory effects of Compounds 41 and 8a, LX-2 cells were pre-incubated in serum-free medium for 24 h before LPS stimulation, followed by treatment with different concentrations of the compounds in serum-free medium containing 1 μg/mL LPS for another 24 h. Changes in inflammatory cytokine protein levels were analyzed using western blotting.
The IKKβ-NF-κB signaling pathway has been closely linked to the severity of liver fibrosis, with IKKβ serving as the primary catalytic subunit responsible for NF-κB activation. Therefore, this study investigated the NF-κB pathway by measuring IKKβ kinase activity. […] To evaluate the effects of the target compounds on LPS-induced inflammatory cytokines, four concentrations (50, 100, 200 and 500 μmol/L) were tested, and the results were analyzed by grayscale scanning of western blot bands using ImageJ software (version 1.53t), with normalization to GAPDH protein levels.
After the confluence of LX-2 cells reached 90%, the cells were treated with serum-free medium for 24 h. 2 ng/mL TGFβ1 or 1 μg/mL LPS were used in combination with compounds of different concentrations for 24 h. The samples of cells were lysed in RIPA buffer supplemented with protease inhibitor cocktail (Roche) and separated by SDS-PAGE. After the proteins were transferred to the PVDF membrane, 5% skim milk in TBS-T buffer was used to block them at room temperature for 2 h. Specific primary and secondary antibodies were used to detect the target protein. Finally, the blot was visualized using the Tanon 5200 system (Tanon, Shanghai, China) and the protein expression of GAPDH was used as the internal reference.

Row | Compound | inhibition at 500 µM ([1]; LX-2 cells, 0.5 mM, 24 h) | relative fluorescence unit (RFU) of COL1A1 promotor ([1]; LX-2 cells) | melting point | fold decrease in COL1A1 promoter inhibitory activity relative to 45 ([1]; 0.5 mM, versus 45) | Inhibitory Rate (%) of COL1A1 promotor ([1]; LX-2 cells, 0.5 mM, 24 h) | inhibition of inflammatory factors [2]
1 | CN[C@@H](CCC(=O)O)C(=O)O [Compound 1, Methyl-L-glutamic acid] | < 0% | 143674.9 ± 32109.7 RFU | 156.1 to 157.5 °C |  |  | 
2 | N[C@@H](CC(=O)Nc1nc(CO)cs1)C(=O)O [Compound 4a, N^4-(4-(hydroxymethyl)thiazol-2-yl)-L-asparagine] | 14.9 ± 8.45% | 106237.2 ± 10544.5 RFU | 257.8 to 259.4 °C |  |  | 
3 | N[C@@H](CC(=O)Nc1nccs1)C(=O)O [Compound 4b, N^4-(thiazol-2-yl)-L-asparagine] | 31.2 ± 14.3% | 85934.6 ± 17864.6 RFU | 268.9 to 271.2 °C |  |  | 
4 | CNC(=O)C[C@H](N)C(=O)O [Compound 4c, N^4-methyl-L-asparagine] | 35.5 ± 18.1% | 80485.7 ± 22615.1 RFU |  |  |  | 
5 | CCNC(=O)C[C@H](N)C(=O)O [Compound 4d, N^4-ethyl-L-asparagine] | 33.1 ± 19% |  |  |  |  | 
6 | O=C(O)C[C@H](NC(=O)OCC1c2ccccc2-c2ccccc21)C(=O)NCCO [Compound 5, (S)-3-((((9H-fluoren-9-yl)methoxy)carbonyl)amino)-4-((2-hydroxyethyl)amino)-4-oxobutanoic acid] | 24 ± 15.4% | 94919.5 ± 19273.7 RFU | 113.6 to 115.1 °C |  |  | 
7 | N[C@@H](CC(=O)O)C(=O)NCCO [Compound 6, (S)-3-amino-4-((2-hydroxyethyl)amino)-4-oxobutanoic acid] | < 0% | 128613.0 ± 57574.1 RFU |  |  |  | 
8 | NC(=O)C[C@H](N)C(=O)N[C@@H](CC(=O)O)C(=O)O [Compound 8b, L-asparaginyl-L-aspartic acid] (H-Asn-Asp-OH) | 23.8 ± 4.57% | 95132.4 ± 5710.5 RFU | 195.3 to 198.6 °C |  |  | 
9 | Cc1ccc(COC(=O)C[C@H](N)C(=O)O)cc1 [Compound 11a, (S)-2-amino-4-((4-methylbenzyl)oxy)-4-oxobutanoic acid] | 11.4 ± 18.5% | 110620.0 ± 23148.4 RFU | 228.1 to 229.6 °C |  |  | 
10 | N[C@@H](CC(=O)OCc1ccc(F)cc1)C(=O)O [Compound 11b, (S)-2-amino-4-((4-fluorobenzyl)oxy)-4-oxobutanoic acid] | < 0% | 130725.3 ± 8310.2 RFU | 227.6 to 230.2 °C |  |  | 
11 | N[C@@H](CC(=O)OCc1ccc([N+](=O)[O-])cc1)C(=O)O [Compound 11c, (S)-2-amino-4-((4-nitrobenzyl)oxy)-4-oxobutanoic acid] | < 0% | 158140.3 ± 50740.1 RFU | 207.2 to 209.5 °C |  |  | 
12 | Cc1ccc(COC(=O)[C@@H](N)CC(=O)O)cc1 [Compound 11d, (S)-3-amino-4-((4-methylbenzyl)oxy)-4-oxobutanoic acid] | 19.9 ± 4.99% | 100087.5 ± 6229.2 RFU | 205.1 to 207.3 °C |  |  | 
13 | N[C@@H](CC(=O)O)C(=O)OCc1ccc(F)cc1 [Compound 11e, (S)-3-amino-4-((4-fluorobenzyl)oxy)-4-oxobutanoic acid] | 27.9 ± 5.81% | 89998.6 ± 7257.5 RFU | 197.6 to 199.5 °C |  |  | 
14 | N[C@@H](CC(=O)O)C(=O)OCc1ccc([N+](=O)[O-])cc1 [Compound 11f, (S)-3-amino-4-((4-nitrobenzyl)oxy)-4-oxobutanoic acid] | 20.6 ± 14.3% | 99123.6 ± 17860.3 RFU | 190.6 to 192.1 °C |  |  | 
15 | NC(Cc1cc(=O)c(O)co1)C(=O)O (stereo not drawn) [Compound 20a, 2-amino-3-(5-hydroxy-4-oxo-4H-pyran-2-yl)propanoic acid] | 17.9 ± 10.1% | 102508.7 ± 12580.9 RFU | 217.1 to 219.8 °C |  |  | 
16 | Cn1cc(O)c(=O)cc1CC(N)C(=O)O (stereo not drawn) [Compound 20b, 2-amino-3-(5-hydroxy-1-methyl-4-oxo-1,4-dihydropyridin-2-yl)propanoic acid] | 24 ± 6.38% | 94881.8 ± 7963.9 RFU |  |  |  | 
17 | N[C@@H](CC(=O)OCc1cc(=O)c(O)co1)C(=O)O [Compound 23a, (S)-2-amino-4-((5-hydroxy-4-oxo-4H-pyran-2-yl)methoxy)-4-oxobutanoic acid] | 27.9 ± 1.16% | 90057.5 ± 1452.6 RFU | 156.3 to 158.7 °C |  |  | 
18 | Cc1oc(COC(=O)C[C@H](N)C(=O)O)cc(=O)c1O [Compound 23b, (S)-2-amino-4-((5-hydroxy-6-methyl-4-oxo-4H-pyran-2-yl)methoxy)-4-oxobutanoic acid] | 34.6 ± 1.75% | 81660.6 ± 2179.5 RFU |  |  |  | 
19 | Cc1cc(=O)n2c(CNC(=O)c3cccc(F)c3F)csc2n1 [Compound 28a, 2,3-difluoro-N-((7-methyl-5-oxo-5H-thiazolo [3,2-a]pyrimidin-3-yl)methyl)benzamide] | 43.9 ± 6.36% | 70040.5 ± 7951.7 RFU | 218 to 220.2 °C |  |  | 
20 | Cc1cc(=O)n2c(CNC(=O)[C@H](N)CCO)csc2n1 [Compound 29, (R)-2-amino-4-hydroxy-N-((7-methyl-5-oxo-5H-thiazolo [3,2-a]pyrimidin-3-yl)methyl)butanamide] | 33.2 ± 33.3% | 83406.5 ± 41616.9 RFU |  |  |  | 
21 | Cc1cc(=O)n2c(COC(=O)C[C@H](N)C(=O)O)csc2n1 [Compound 31, (S)-2-amino-4-((7-methyl-5-oxo-5H-thiazolo [3,2-a]pyrimidin-3-yl)methoxy)-4-oxobutanoic acid] | 14.6 ± 3.11% | 106608.6 ± 3888.3 RFU |  |  |  | 
22 | Cc1cc(=O)n2c(CNc3ccccn3)csc2n1 [Compound 32a, 7-methyl-3-((pyridin-2-ylamino)methyl)-5H-thiazolo [3,2-a]pyrimidin-5-one] | 47.7 ± 4.81% | 65321.0 ± 6005.7 RFU |  |  |  | 
23 | Cc1cc(=O)n2c(CN[C@@H](CC(=O)O)C(=O)O)csc2n1 [Compound 33, ((7-methyl-5-oxo-5H-thiazolo [3,2-a]pyrimidin-3-yl)methyl)-L-aspartic acid] | 6.39 ± 7.06% | 116893.2 ± 8812.8 RFU |  |  |  | 
24 | Cc1cc(=O)n2c(CC(=O)N[C@H]3CCOC3=O)csc2n1 [Compound 34a, (S)-2-(7-methyl-5-oxo-5H-thiazolo [3,2-a]pyrimidin-3-yl)-N-(2-oxotetrahydrofuran-3-yl)acetamide] | 15.5 ± 16.6% | 105579.0 ± 20740.0 RFU |  |  |  | 
25 | Cc1cc(=O)n2c(CC(=O)N[C@@H](CC(=O)O)C(=O)O)csc2n1 [Compound 35, (2-(7-methyl-5-oxo-5H-thiazolo [3,2-a]pyrimidin-3-yl)acetyl)-L-aspartic acid] | < 0% | 161478.3 ± 67708.9 RFU | 253.1 to 256.8 °C |  |  | 
26 | N[C@@H](CC(=O)OCc1cc(=O)n2ccsc2n1)C(=O)O [Compound 37, (S)-2-amino-4-oxo-4-((5-oxo-5H-thiazolo [3,2-a]pyrimidin-7-yl)methoxy)butanoic acid] | 8.46 ± 8.16% | 114307.8 ± 10191.8 RFU |  |  |  | 
27 | COC(=O)[C@H]1C[C@H](Oc2cc(C)nn3c(-c4ccc(OC)c(OC)c4)cnc23)CN1 [Compound 43, Methyl (2R,4S)-4-((3-(3,4-dimethoxyphenyl)-6-methylimidazo [1,2-b]pyridazin-8-yl)oxy)pyrrolidine-2-carboxylate] | 38.2 ± 3.28% | 77132.5 ± 4101.8 RFU | 127.2 to 129.6 °C | 1.8 fold |  | 
28 | O=C(O[C@@H]1Cc2c(O)cc(O)cc2O[C@@H]1c1cc(O)c(O)c(O)c1)c1cc(O)c(O)c(O)c1 [EGCG, epigallocatechin gallate, reference compound] |  | 79340.1 ± 5808.7 RFU |  |  | 36.46 ± 4.64% | 
29 | N[C@@H](CC(=O)O)C(=O)O [L-Asp, L-aspartic acid, reference compound] | 11.3 ± 0.35% | 110724.3 ± 444.6 RFU |  |  |  | moderate inhibition
